Results taken from patent publication US20250304623A1, “PEPTIDES FOR INTRACELLULAR DELIVERY” (UNIVERSIDADE DE SANTIAGO DE COMPOSTELA, priority 2022, published 2025).

Columns and labels:
Format in all cases: cell-based
[1] = tested on: ARPE19 cells expressing EGFP; test: EGFP-targeting siRNA delivery (GFP silencing vs siMOCK), ARPE19
Experimental: To generate an EGFP expressing HeLa cell line, HeLa cells were transfected with EGFP pDNA (pEGFP-C1, Clontech) and stable transfectants were selected with 400 μg/mL of G-418 (Millipore). Green clones were selected by epifluorescence microscopy and tested for EGFP expression stability through several passages. […] All other EGFP-expressing cell lines were obtained in a similar way from parent non-EGFP-expressing cell lines.
Cells expressing EGFP were seeded in a 96 well plate the day before the experiment at a concentration of 50,000 cell/mL (100 μL/w) in DMEM+10% FBS+1% Gln-Abt. For robotic library screening, the delivery of an EGFP-targeting siRNA (EGFP: enhanced green fluorescent protein, Ambion® Silencer® GFP Positive Control siRNA (siGFP) (AM4626)) in six different cell lines expressing EGFP was performed. […] The mixture was shaken for 30 min at room temperature (rt) before the addition to the cells. The cell medium was aspirated, and cells were washed twice with PBS. Finally, 50 μL of the solution of siRNA/amphiphile complexes were added to the cells and incubated for 4 h. After transfection, the medium was replaced by 100 μL of fresh DMEM supplemented with 10% FBS. The fluorescence knockdown was quantified after 72 h in a plate reader, by comparison with cells transfected with a non-targeting siRNA control (siMOCK, Silencer™ Negative Control No. 1 siRNA (siMOCK) (AM4611)). EGFP knockdown was compared with Lipofectamine® RNAiMAX silencing efficiency (30-60% depending on cell line, defined with a numeric value in the below tables). All experiments were done in triplicate.
(§1) Tables 1-7: RLuc (pDNA) or EGFP (mRNA) expression levels were normalized to Lipofectamine reagents (value=1) and expressed as fold-times signal increase. In the case of siRNA, the siRNA treated cells fluorescence was compared with siMOCK control fluorescence, while Cas9-RNP mediated knockout was measured against the fluorescence of untreated cells. In both siRNA and Cas9-RNP, values are expressed as % fluorescence reduction. Amphiphile concentration was 5 μM in all cases. All experiments were performed in triplicate.
Tables 20-25 show the mean (triplicates) percentage of GFP-silencing, accounted by fluorescence intensity decrease relative to a non-targeting siRNA (siMOCK) control, measured after the transfection of siRNA by different amphiphiles at different concentrations in a variety of cell lines. Background values, accounted by untreated control cells, were subtracted for processing.

ARPE19 cells = test: RLuc pDNA delivery, robotic library screening, ARPE19
Hek293 cells = test: EGFP mRNA delivery, robotic library screening, Hek293
Experimental: Cells were seeded in a 96 well plate the day before the experiment at a concentration of 50,000 cell/mL (100 μL/w) in DMEM+10% FBS+1% Gln-Abt. For robotic library screening, the delivery of EGFP-mRNA (from TriLink, fully substituted with 5-methoxyuridine, capped and polyadenylated; TriLink, CleanCap® EGFP mRNA (5moU), ref. L-7201) in six different cell lines was performed. Amphiphilic molecule stock solutions were prepared in DMSO as described above and diluted in DMEM to afford a range of concentrations. The solutions of EGFP-mRNA/amphiphilic molecule complexes were freshly prepared prior to the transfection experiments. 35 μL of the corresponding amphiphile were added to 10 μL of a solution of EGFP-mRNA at 10 ng/μL in DMEM. The mixture was shaken for 30 min at room temperature before the addition to the cells. The cell medium was aspirated, and cells were washed with PBS twice. Cells were covered with 39 μL of DMEM and 11 μL of the complex's solution were added to the cells and incubated for 4 h (final concentration of peptide=2.5, 5 and 10 μM; final concentration of EGFP-mRNA=25 ng/well). After the incubation, the medium was replaced by 100 μL of fresh DMEM supplemented with 10% FBS. The total EGFP fluorescence was quantified after 72 h in a well plate reader. Amphiphile transfection efficiency was compared and normalized to Lipofectamine® MessengerMax efficiency (value of 1 in Tables 1-5 and 7; double underlined numbers). All experiments were done in triplicate.
as §1
Tables 14-19 show the mean (triplicates) fluorescence intensity measured after the transfection of EGFP mRNA by different amphiphiles at different concentrations in a variety of cell lines. Background fluorescence values, accounted by untreated control cells, were subtracted for processing.

For “Ac-RHLK*RLK*RRLK*RL-NH2 (Ac-RHLKRLKRRLKRL-NH2; not fully specified (residues 4, 7, 11); printed as Ac-RHLK*RLK*RRLK*RL-NH2; also: linker on K* not given here) [13(Arg-His)]”, the “percentage of GFP-silencing relative to siMOCK” value ([1]; Dodecanal, 5 μM) was 60%, the “percentage of GFP-silencing relative to siMOCK” value ([1]; Dodecanal, 10 μM) was 54% and the “percentage of GFP-silencing relative to siMOCK” value ([1]; Dodecanal, 15 μM) was 34%. The “percentage of GFP-silencing relative to siMOCK” value ([1]; Myristoleyl, 10 μM) was 0%, the “percentage of GFP-silencing relative to siMOCK” value ([1]; Myristoleyl, 15 μM) was 14% and the “percentage of GFP-silencing relative to siMOCK” value ([1]; Oleyl, 10 μM) was 29%. For the same substance, the “percentage of GFP-silencing relative to siMOCK” value ([1]; Oleyl, 15 μM) was 31%, the “percentage of GFP-silencing relative to siMOCK” value ([1]; Palmitoleyl, 5 μM) was 51% and the “percentage of GFP-silencing relative to siMOCK” value ([1]; Palmitoleyl, 10 μM) was −6%. The “percentage of GFP-silencing relative to siMOCK” value ([1]; Palmitoleyl, 15 μM) was 7%, the “percentage of GFP-silencing relative to siMOCK” value ([1]; Petroselinyl, 5 μM) was 42% and the “percentage of GFP-silencing relative to siMOCK” value ([1]; Petroselinyl, 10 μM) was 24%. For the same substance, the “percentage of GFP-silencing relative to siMOCK” value ([1]; Petroselinyl, 15 μM) was 26%, the “mean luminescent intensity (RLuc pDNA)” value (ARPE19 cells; Dodecanal, 5 μM) was 69520 RLU and the “mean luminescent intensity (RLuc pDNA)” value (ARPE19 cells; Dodecanal, 10 μM) was 2762 RLU. For the same substance, the “mean luminescent intensity (RLuc pDNA)” value (ARPE19 cells; Myristoleyl, 5 μM) was 17 RLU, the “mean luminescent intensity (RLuc pDNA)” value (ARPE19 cells; Myristoleyl, 10 μM) was −31 RLU and the “mean luminescent intensity (RLuc pDNA)” value (ARPE19 cells; Myristoleyl, 15 μM) was −11 RLU. The “mean luminescent intensity (RLuc pDNA)” value (ARPE19 cells; Oleyl, 5 μM) was 8369 RLU, the “mean luminescent intensity (RLuc pDNA)” value (ARPE19 cells; Oleyl, 10 μM) was 2379 RLU and the “mean luminescent intensity (RLuc pDNA)” value (ARPE19 cells; Oleyl, 15 μM) was 716 RLU. For the same substance, the “mean luminescent intensity (RLuc pDNA)” value (ARPE19 cells; Palmitoleyl, 5 μM) was 67443 RLU, the “mean luminescent intensity (RLuc pDNA)” value (ARPE19 cells; Palmitoleyl, 15 μM) was 670 RLU and the “mean luminescent intensity (RLuc pDNA)” value (ARPE19 cells; Petroselinyl, 5 μM) was 44329 RLU. For the same substance, the “mean luminescent intensity (RLuc pDNA)” value (ARPE19 cells; Petroselinyl, 10 μM) was 2986 RLU, the “mean luminescent intensity (RLuc pDNA)” value (ARPE19 cells; Petroselinyl, 15 μM) was 1967 RLU and the “mean fluorescence intensity (EGFP mRNA)” value (Hek293 cells; Myristoleyl, 2.5 μM) was 2326. For the same substance, the “mean fluorescence intensity (EGFP mRNA)” value (Hek293 cells; Oleyl, 2.5 μM) was 5005, the “mean fluorescence intensity (EGFP mRNA)” value (Hek293 cells; Oleyl, 5 μM) was 1571 and the “mean fluorescence intensity (EGFP mRNA)” value (Hek293 cells; Oleyl, 10 μM) was 1231. For the same substance, the “mean fluorescence intensity (EGFP mRNA)” value (Hek293 cells; Palmitoleyl, 10 μM) was 777, the “mean fluorescence intensity (EGFP mRNA)” value (Hek293 cells; Petroselinyl, 2.5 μM) was 1436 and the “mean fluorescence intensity (EGFP mRNA)” value (Hek293 cells; Petroselinyl, 5 μM) was 638. The “mean fluorescence intensity (EGFP mRNA)” value (Hek293 cells; Petroselinyl, 10 μM) was 372.
